Measurements published in patent US20130303518A1, “Methods of Inhibiting the Catalytic Activity of a Protein Kinase and of Treating a Protein Kinase Related Disorder” (JIANGSU HANSOH PHARMACEUTICAL CO., LTD., priority 2007, published 2013).
Marks after values point to notes of the source that are not given here.

Key:
Flt1 = target: T1, Flt1 (Homo sapiens, UniProt P17948); test: Inhibition of receptor tyrosine kinases activity assay; format: biochemical
T1 construct: purchased invitrogen PV3666

Ret = target: T2, Ret (Homo sapiens, UniProt P07949); test: as above; format: biochemical
T2 construct: purchased invitrogen PV3819
T2 sequence (P07949 29-1114): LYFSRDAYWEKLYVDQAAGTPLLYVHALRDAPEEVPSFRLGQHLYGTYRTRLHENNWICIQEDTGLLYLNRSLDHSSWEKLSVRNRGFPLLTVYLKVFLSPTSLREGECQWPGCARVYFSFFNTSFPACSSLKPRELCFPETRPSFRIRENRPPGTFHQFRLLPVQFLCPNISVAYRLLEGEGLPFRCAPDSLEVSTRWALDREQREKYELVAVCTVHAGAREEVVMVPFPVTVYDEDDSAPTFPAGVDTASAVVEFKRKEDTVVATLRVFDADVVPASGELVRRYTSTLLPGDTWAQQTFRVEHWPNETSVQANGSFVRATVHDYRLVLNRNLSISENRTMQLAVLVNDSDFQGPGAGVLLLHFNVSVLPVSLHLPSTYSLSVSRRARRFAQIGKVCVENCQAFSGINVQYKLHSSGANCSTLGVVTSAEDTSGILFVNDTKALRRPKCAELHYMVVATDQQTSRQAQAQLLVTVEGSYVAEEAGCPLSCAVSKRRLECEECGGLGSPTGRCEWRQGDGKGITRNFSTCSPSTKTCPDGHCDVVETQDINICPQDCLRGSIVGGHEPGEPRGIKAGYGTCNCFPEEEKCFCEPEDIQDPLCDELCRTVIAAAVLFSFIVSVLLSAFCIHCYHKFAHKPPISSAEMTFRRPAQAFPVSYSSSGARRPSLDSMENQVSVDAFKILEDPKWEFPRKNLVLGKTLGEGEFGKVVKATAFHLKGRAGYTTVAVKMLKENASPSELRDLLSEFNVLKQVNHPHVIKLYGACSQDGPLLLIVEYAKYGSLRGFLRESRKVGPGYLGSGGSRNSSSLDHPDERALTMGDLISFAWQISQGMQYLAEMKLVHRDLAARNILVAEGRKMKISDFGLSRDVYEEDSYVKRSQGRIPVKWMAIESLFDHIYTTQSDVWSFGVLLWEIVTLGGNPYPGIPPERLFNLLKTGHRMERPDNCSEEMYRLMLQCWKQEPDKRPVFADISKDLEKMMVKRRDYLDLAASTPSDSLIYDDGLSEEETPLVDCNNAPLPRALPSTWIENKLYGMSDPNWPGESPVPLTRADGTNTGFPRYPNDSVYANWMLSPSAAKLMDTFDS

[1] = tested on: HUVEC (human umbilical vein endothelial cells); test: Inhibition of cancer cell proliferation assay (SRB); format: cell-based; conditions: mean ± SD, 72 hours
Text: (§1) The cellular assay described here is to test the proliferation inhibition activity of the compound of Example 53 on the cancer cells in vitro using Sulforhodamine B (SRB) method. The cancer cells include HUVEC (human umbilical vein endothelial cells), HT-29 (human colon cancer cells), Mo7e (human megakaryoblastic leukemia cell line), A431 (human epidermoid carcinoma cells), NCI—H526 (small-cell lung cancer cells), and SK—BR-3 (human breast cancer cells).
HUVEC cancer cell: American Type Culture Collection, Cat. No. CRL-1730
(§2) The following in vitro assay is to determine the activity of the tested compound for inhibiting the proliferation of the cancer cells mentioned above. The activity is represented by the IC50 value. The general procedures of the assay are given as follows: Cancer cells mentioned above were chosen and seeded to 96-well cell culture plate at a suitable concentration (e.g., 5000 cells/mL medium). These cells then were incubated in carbon dioxide (CO2) incubator until they reached 85% confluency. […] 72 hours later, the activity of the tested compound for inhibiting the cell proliferation was determined by using Sulforhodamine B (SRB) method. IC50 value on tested cells is calculated by the data of inhibition rates of serial concentrations of the tested compound.

[2] = tested on: HT-29 (human colon cancer cells); test: as above; format: cell-based; conditions: mean ± SD, 72 hours
Text: as §1
HT-29 cancer cell: Cell Bank, Chinese Academy of Sciences, TCHu103;
as §2

[3] = tested on: A431 (human epidermoid carcinoma cells); test: as above; format: cell-based; conditions: A-431, 72 h, read-out: IC50 A431
Text: (§3) The cancer cells include HUVEC (human umbilical vein endothelial cells), HT-29 (human colon cancer cells), Mo7e (human megakaryoblastic leukemia cell line), A431 (human epidermoid carcinoma cells), NCI—H526 (small-cell lung cancer cells), and SK—BR-3 (human breast cancer cells).
(§4) The following in vitro assay is to determine the activity of the tested compound for inhibiting the proliferation of the cancer cells mentioned above. The activity is represented by the IC50 value. The general procedures of the assay are given as follows: Cancer cells mentioned above were chosen and seeded to 96-well cell culture plate at a suitable concentration (e.g., 5000 cells/mL medium). […] Then, the cell culture medium was replaced by fresh one with tested compound added in it at serial concentrations (general 6 to 7 concentrations). Then the cells were put back to the incubator and cultured continuously. 72 hours later, the activity of the tested compound for inhibiting the cell proliferation was determined by using Sulforhodamine B (SRB) method. IC50 value on tested cells is calculated by the data of inhibition rates of serial concentrations of the tested compound.

[4] = tested on: NCI—H526 (small-cell lung cancer cells); test: as above; format: cell-based; conditions: Homo sapiens, NCI-H526, 72 h, read-out: IC50 NCI-H526
Text: as §3, §4

[5] = tested on: SK—BR-3 (human breast cancer cells); test: as above; format: cell-based; conditions: SK-BR-3, 72 h, read-out: IC50 SK-BR-3
Text: as §3, §4

HT-29(colon cancer) = test: Anticancer pharmacodynamic assay in vivo, xenograft; design: species or system nude mice; conditions: for T/C (%): relative tumor volume (%): HT-29 xenograft, d0-20
Text: (§5) The test method and steps are the same with those disclosed in “PHARMACODYNAMIC ASSAYS IN VIVO” of the present invention. The therapeutic effects of the compound of Example 53 against xenografts of colon cancer, non-small cell lung cancer, liver cancer, melanoma, renal cancer in nude mice are estimated.
HT-29(colon cancer): Cell Bank, Chinese Academy of Sciences, TCHu103;
(§6) Nude mice were hypodermic inoculated HT-29 human colon cancer cell. After tumors grew to 100-300 mm^3, mice were randomly divided into teams (d0). The volume of tumors and weigh of the mice were measured for 2-3 times per week. The calculation formula of the volume of tumor (V) is: V=½×a×b^2, a: length of tumor, b: width of tumor.

[6] = tested on: NCI—H460 (non-small cell lung cancer); test: as above; design: species or system nude mice; conditions: for T/C (%): relative tumor volume (%): NCI-H460 xenograft, d0-13, P < 0.01 vs Control
Text: as §5
NCI—H460 (non-small cell lung cancer): Cell Bank, Chinese Academy of Sciences, TCHu205;
as §6

Bel-7402(liver cancer) = test: as above; design: species or system nude mice; conditions: for T/C (%): relative tumor volume (%): Bel-7402 xenograft
Text: as §5
Bel-7402(liver cancer): Cell Bank, Chinese Academy of Sciences, TCHu10;
as §6

A375 (melanoma) = test: as above; design: species or system nude mice; conditions: for T/C (%): relative tumor volume (%): A375 xenograft
Text: as §5
A375 (melanoma): Cell Bank, Chinese Academy of Sciences, TCHu4;
as §6

Caki-1 (renal cancer) = test: as above; design: species or system nude mice; conditions: for T/C (%): relative tumor volume (%): Caki-1 xenograft, d0-22
Text: as §5
Caki-1 (renal cancer): Cell Bank, Chinese Academy of Sciences, TCHu135.
as §6

[7] = mean ± SD, 20 μM ATP, 25° C., 45 minutes

T1 sequence (P17948 27-1338): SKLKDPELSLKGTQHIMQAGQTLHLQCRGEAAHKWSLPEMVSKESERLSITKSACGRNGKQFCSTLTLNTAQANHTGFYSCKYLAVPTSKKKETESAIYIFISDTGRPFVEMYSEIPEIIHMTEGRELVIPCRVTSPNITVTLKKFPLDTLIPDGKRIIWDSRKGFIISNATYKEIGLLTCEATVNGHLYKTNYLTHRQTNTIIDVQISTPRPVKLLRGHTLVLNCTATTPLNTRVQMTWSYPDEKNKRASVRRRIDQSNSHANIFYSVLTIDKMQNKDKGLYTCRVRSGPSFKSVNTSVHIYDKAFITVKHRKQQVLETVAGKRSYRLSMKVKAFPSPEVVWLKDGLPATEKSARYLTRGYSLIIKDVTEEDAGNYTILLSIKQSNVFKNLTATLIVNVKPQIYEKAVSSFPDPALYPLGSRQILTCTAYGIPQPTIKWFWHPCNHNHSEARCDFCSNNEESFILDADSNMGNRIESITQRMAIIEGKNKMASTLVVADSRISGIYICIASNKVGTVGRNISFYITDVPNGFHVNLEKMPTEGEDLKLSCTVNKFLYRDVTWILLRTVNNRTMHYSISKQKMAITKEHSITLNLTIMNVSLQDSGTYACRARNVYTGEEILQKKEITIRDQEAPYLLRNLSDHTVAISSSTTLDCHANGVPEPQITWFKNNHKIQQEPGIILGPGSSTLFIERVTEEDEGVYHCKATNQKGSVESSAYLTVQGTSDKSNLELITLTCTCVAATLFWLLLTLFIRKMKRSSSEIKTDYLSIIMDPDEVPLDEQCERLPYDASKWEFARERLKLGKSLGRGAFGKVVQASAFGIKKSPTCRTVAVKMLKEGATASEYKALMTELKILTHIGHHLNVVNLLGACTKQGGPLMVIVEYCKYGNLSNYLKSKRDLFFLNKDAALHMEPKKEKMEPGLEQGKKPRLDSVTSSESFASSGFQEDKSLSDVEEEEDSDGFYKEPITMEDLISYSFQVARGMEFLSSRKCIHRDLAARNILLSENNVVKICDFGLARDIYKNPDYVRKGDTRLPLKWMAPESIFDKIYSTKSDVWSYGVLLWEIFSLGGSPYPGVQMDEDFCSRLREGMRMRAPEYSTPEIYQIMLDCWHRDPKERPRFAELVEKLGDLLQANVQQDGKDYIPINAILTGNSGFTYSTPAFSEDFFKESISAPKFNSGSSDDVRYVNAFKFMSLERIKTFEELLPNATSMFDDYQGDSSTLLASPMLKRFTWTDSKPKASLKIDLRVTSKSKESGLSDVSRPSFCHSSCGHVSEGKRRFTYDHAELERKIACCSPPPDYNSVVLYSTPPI

Structure (SMILES): Cc1c(/C=C2\C(=O)Nc3ccc(F)cc32)[nH]c2c1C(=O)N(C[C@H](O)CN1CCOCC1)CCC2 [Example 53, (R,Z)-2-(5-Fluoro-2-oxo-1,2-dihydro-indol-3-ylidenemethyl)-5-(2-hydroxy-3-morpholin-4-yl-propyl)-3-methyl-5,6,7,8-tetrahydro-1H-pyrrolo[3,2-c]azepin-4-one]
- inhibition of kinase activity (in words) (Flt1; Flt1): obvious activity
- IC50 (Flt1; [7]): 30.9 ± 5.7 nM
- inhibition of kinase activity (in words) (Ret; Ret): obvious activity
- IC50 (Ret; [7]): 182 ± 6.4 nM
- IC50 [1]: 1100 nM
- IC50 [2]: 2400 ± 1600 nM
- IC50 [3]: 2000 ± 500 nM
- IC50 [4]: 8300 ± 300 nM
- IC50 [5]: 7800 ± 1500 nM
- anticancer activity against xenograft (in words) (HT-29(colon cancer); HT-29 xenograft in nude mice): obvious anticancer activity
- T/C (%): relative tumor volume (%) (HT-29(colon cancer); 15 mg/kg p.o): 49.4%
- T/C (%): relative tumor volume (%) (HT-29(colon cancer); 30 mg/kg p.o): 48.5%
- T/C (%): relative tumor volume (%) (HT-29(colon cancer); 60 mg/kg p.o): 31.6%
- T/C (%): relative tumor volume (%) ([6]; 15 mg/kg p.o): 41.1* %
- T/C (%): relative tumor volume (%) ([6]; 30 mg/kg p.o): 46.3* %
- T/C (%): relative tumor volume (%) ([6]; 60 mg/kg p.o): 58.4* %
- anticancer activity against xenograft (in words) ([6]; NCI—H460 xenograft in nude mice): obvious anticancer activity
- anticancer activity against xenograft (in words) (Bel-7402(liver cancer); Bel-7402 xenograft in nude mice): obvious anticancer activity
- T/C (%): relative tumor volume (%) (Bel-7402(liver cancer); 15 mg/kg p.o d0-17): 39.8%
- T/C (%): relative tumor volume (%) (Bel-7402(liver cancer); 30 mg/kg p.o d0-17): 29.2%
- T/C (%): relative tumor volume (%) (Bel-7402(liver cancer); 60 mg/kg p.o d0-17): 13.3%
- anticancer activity against xenograft (in words) (A375 (melanoma); A375 xenograft in nude mice): obvious anticancer activity
- T/C (%): relative tumor volume (%) (A375 (melanoma); 15 mg/kg p.o d0-16): 82.5%
- T/C (%): relative tumor volume (%) (A375 (melanoma); 30 mg/kg p.o d0-16): 58.5%
- T/C (%): relative tumor volume (%) (A375 (melanoma); 60 mg/kg p.o d0-16): 46.4%
- anticancer activity against xenograft (in words) (Caki-1 (renal cancer); Caki-1 xenograft in nude mice): obvious anticancer activity
- T/C (%): relative tumor volume (%) (Caki-1 (renal cancer); 15 mg/kg p.o): 73.0%
- T/C (%): relative tumor volume (%) (Caki-1 (renal cancer); 30 mg/kg p.o): 45.5%
- T/C (%): relative tumor volume (%) (Caki-1 (renal cancer); 60 mg/kg p.o): 36.8%
